# In ChEMBL document CHEMBL5725469, “C17-aryl substituted betulinic acid analogs” (2018):
# Assay: HIV cell culture assay: MT-2 cells and 293T cells were obtained from the NIH AIDS Research and Reference Reagent Program. MT-2 cells were propagated in RPMI 1640 media supplemented with 10% heat inactivated fetal bovine serum, 100 μg/mL penicillin G and up to 100 units/mL streptomycin. The 293T cells were propagated in DMEM media supplemented with 10% heat inactivated fetal bovine serum (FBS), 100 units/mL penicillin G and 100 μg/mL streptomycin. The proviral DNA clone of NL4-3 was obtained from the NIH AIDS Research and Reference Reagent Program. A recombinant NL4-3 virus, in which a section of the nef gene from NL4-3 was replaced with the Renilla luciferase gene, was used as a reference virus. In addition, residue Gag P373 was converted to P373S. Briefly, the recombinant virus was prepared by transfection of the altered proviral clone of NL4-3. Transfections were performed in 293T cells using LipofectAMINE PLUS from Invitrogen (Carlsbad, Calif.), according to manufacturer's instruction. The virus was titered in MT-2 cells using luciferase enzyme activity as a marker. Luciferase was quantitated using the Dual Luciferase kit from Promega (Madison, Wis.), with modifications to the manufacturer's protocol. The diluted Passive Lysis solution was pre-mixed with the re-suspended Luciferase Assay Reagent and the re-suspended Stop & Glo Substrate (2:1:1 ratio). Fifty (50) μL of the mixture was added to each aspirated well on assay plates and luciferase activity was measured immediately on a Wallac TriLux (Perkin-Elmer). Antiviral activities of inhibitors toward the recombinant virus were quantified by measuring luciferase activity in cells infected for 4-5 days with NLRluc recombinants in the presence serial dilutions of the inhibitor.
# Assay type: cell-based
row,SMILES,EC50
1,C=C(C)[C@@H]1CC[C@]2(c3ncn(CCN4CCS(=O)(=O)CC4)n3)CC[C@]3(C)[C@H](CC[C@@H]4[C@@]5(C)CC=C(c6ccc(C(=O)O)cc6)C(C)(C)[C@@H]5CC[C@]43C)[C@@H]12,> 0.1 µM
2,C=C(C)[C@@H]1CC[C@]2(c3nnc(CN(C)C)o3)CC[C@]3(C)[C@H](CC[C@@H]4[C@@]5(C)CC=C(c6ccc(C(=O)O)cc6)C(C)(C)[C@@H]5CC[C@]43C)[C@@H]12,> 0.1 µM
3,C=C(C)[C@@H]1CC[C@]2(c3nnco3)CC[C@]3(C)[C@H](CC[C@@H]4[C@@]5(C)CC=C(c6ccc(C(=O)O)cc6)C(C)(C)[C@@H]5CC[C@]43C)[C@@H]12,> 0.1 µM
4,C=C(C)[C@@H]1CC[C@]2(C#Cc3ccsc3-c3nnn[nH]3)CC[C@]3(C)[C@H](CC[C@@H]4[C@@]5(C)CC=C(c6ccc(C(=O)O)cc6)C(C)(C)[C@@H]5CC[C@]43C)[C@@H]12,< 0.1 µM
5,C=C(C)[C@@H]1CC[C@]2(c3ncnn3C)CC[C@]3(C)[C@H](CC[C@@H]4[C@@]5(C)CC=C(c6ccc(C(=O)O)cc6)C(C)(C)[C@@H]5CC[C@]43C)[C@@H]12,> 0.1 µM
6,C=C(C)[C@@H]1CC[C@]2(c3nc[nH]n3)CC[C@]3(C)[C@H](CC[C@@H]4[C@@]5(C)CC=C(c6ccc(C(=O)O)cc6)C(C)(C)[C@@H]5CC[C@]43C)[C@@H]12,> 0.1 µM
